Measured values reported in US4556671A, “Pharmaceutical formulations” (Burroughs Wellcome Co., priority 1981, dated 1985).
In brackets after ≈: the same amount, converted by molar mass. Like-named read-outs stand apart in the source and are kept apart here.

How the values were obtained:
[1] = system: Female Wistar rats; experiment: Acute Anti-inflammatory Activity: Carrageenin Test; type: in vivo, rat
Description: Female Wistar rats (100-150 g, groups of 5) were starved for approximately 24 hours prior to testing and througout the experimental period. Water was available ad. lib. […] A control group received Celacol alone. Immediately after dosing, each rat received, in a plantar area of the left hind foot, an injection of 0.1 ml of the supernatant of a 30 mg/ml suspension of carrageenin in 0.9% saline. The thickness of the foot was measured with calipers 1 hour and 4 hours after the carrageenin injection. The increases in foot thickness during this time was compared with those of the control group and the percentage reduction in swelling calculated for each tested group.

[2] = system: mice; experiment: PBQ-Induced Algesia; type: in vivo; conditions: Mus musculus, po, read-out: ED50 (reduction of number of stretches by 50%)
Description: An irritant, p-phenylbenzquinone (PBQ), was administered to mice intraperitoneally at a dose of 5 mg/kg to elicit a stretch-reflex in the animal. The number of stretches in 25 minute period were counted.

[3] = system: Leukocyte Migration; experiment: Carrageenin-impregnated sponge inflammatory exudates: leukocyte migration; type: in vivo, rat; conditions: 24 hours
Description: (§1) The sponges were removed after 24 hours, immersed in 5 ml herparinised saline and squeezed until dry.

[4] = system: Prostaglandin; experiment: Carrageenin-impregnated sponge inflammatory exudates: prostaglandin concentration; type: in vivo, rat; conditions: 24 hours
Description: as §1

[5] = system: HETE; experiment: Production of HETE (enzyme assay, Blackwell and Flower); type: biochemical; conditions: 100 μg/ml
[6] = system: cyclo-oxygenase and lipoxygenase
[7] = biological target: lipoxygenase; experiment: Inhibition of Lipoxygenase (enzyme assay, Blackwell and Flower); type: biochemical
[8] = rat, oral, suspension in 0.25% Celacol, reduction in foot swelling 1 to 4 hours after carrageenin, read-out: ED50
[9] = 30 mins prior to PBQ 5 mg/kg intraperitoneally, stretches in 25 minutes

CC(=O)Oc1ccccc1C(=O)O [Aspirin, reference compound]
ED50 ([1]; Rattus norvegicus, po, 4 h): 70 mg/kg
ED50 [2]: 70 mg/kg

C[C@@H]1C[C@H]2[C@@H]3CCC4=CC(=O)C=C[C@]4(C)[C@@]3(F)[C@@H](O)C[C@]2(C)[C@@]1(O)C(=O)CO [Dexamethasone]
Inhibition of Leukocyte Migration ([3]; 0.1 mg/kg i.m., s.e.m): 62% ± 17
Inhibition of Leukocyte Migration ([3]; 0.1 mg/kg p.o.): ~ 30%
Reduction of Prostaglandin Concentration ([4]; 0.1 mg/kg i.m., s.e.m): 64% ± 6
Reduction of Prostaglandin Concentration ([4]; 0.1 mg/kg p.o.): ~ 30%

NC1=NN(c2cccc(C(F)(F)F)c2)CC1 [Example 1, 3-Amino-1-(m-trifluoromethylphenyl)pyrazol-2-ine]
ED50 [1, 8]: 11 mg/kg
ED50 [2, 9]: 20.6 mg/kg
Inhibition of Leukocyte Migration ([3]; 50 mg/kg p.o., s.e.m): 73% ± 9
reduction of the production of HETE [5]: less than 20%
inhibition of cyclo-oxygenase and lipoxygenase activity (in words) [6]: equally active in inhibiting cyclo-oxygenase and lipoxygenase activity
doses at which cyclo-oxygenase and lipoxygenase are inhibited (in words) ([6]; compared with the other heterocyclic compounds of formula (I)): at doses substantially below those of the other heterocyclic compounds of formula (I)
IC50 (lipoxygenase) [7]: 0.72 µg/mL (≈ 3.14 µM)

NC1=NN(c2ccc(Cl)cc2)CC1 [Example 6, 3-Amino-1-p-chlorophenyl-2-pyrazoline]
ED50 [1, 8]: 22 mg/kg
ED50 [2, 9]: 13 mg/kg

NC1=NN(c2ccccc2)CC1 [Example 7, 3-Amino-1-phenyl-2-pyrazoline]
ED50 [1, 8]: 60 mg/kg

CC1CC(N)=NN1c1ccc(Cl)cc1.Cl (centres unmarked) [Example 24, 3-Amino-1-p-chlorophenyl-5-methyl-2-pyrazoline hydrochloride]
ED50 [1, 8]: 36 mg/kg

COc1ccc2c(c1)c(CC(=O)O)c(C)n2C(=O)c1ccc(Cl)cc1 [Indomethacin]
Inhibition of Leukocyte Migration ([3]; 4 mg/kg p.o., s.e.m): 26% ± 7
Reduction of Prostaglandin Concentration ([4]; 4 mg/kg p.o.): 98%

CCCCC1C(=O)N(c2ccccc2)N(c2ccccc2)C1=O [Phenylbutazone, reference compound]
ED50 [1, 8]: 22 mg/kg
